{"source": "patent US20070092551A1", "about": "“Therapeutic agent” (TAKARA BIO INC., priority 2003, published 2007)", "key": {"[1]": {"tested_on": "insulin-resistant mature adipocytes", "assay": "Enhancing action on glucose uptake into insulin-resistant (TNF-α treated) mature adipocytes", "type": "cell-based", "settings": "group treated with insulin; mature adipocytes treated with mouse-derived TNF-α 10 or 20 ng/mL", "description": "It is said that tumor necrosis factor a (TNF-α) is deeply involved in insulin resistance, and it has been known that a signal from an insulin receptor is inhibited by treating mature adipocytes with TNF-α, so that a reaction of glucose uptake is inhibited by insulin stimulation (Proc. Natl. Acad. Sci. USA, vol. 91, p 4854-4858 (1994)). The enhancing action by 4-hydroxyderricin on glucose uptake into mature adipocytes in which insulin resistance was induced by TNF-α was evaluated.\nThe induction of differentiation into mature adipocytes was carried out in the same manner as in the method described in Example 83, except that after preparation of the mature adipocytes, in order to induce insulin resistance in these mature adipocytes, mouse-derived TNF-α (manufactured by Cosmobio, 3410) was added to the medium so as to have a final concentration of 10 ng/mL or 20 ng/mL, and the adipocytes were cultured for additional 2 days. […]\nThe enhancing action on glucose uptake was evaluated in the same manner as in the method described in Example 83. For each of the cells prepared in item (1) of Example 95 mentioned above, there were set a group containing 4-hydroxyderricin at a final concentration of 30 μM, a group without addition of the sample as a negative control, and a group with treatment with insulin, and the radioactivity of each group was determined. […]"}, "[2]": {"tested_on": "mature adipocytes which were induced to be differentiated by xanthoangelol", "assay": "Glucose uptake into adipocytes induced to be differentiated by xanthoangelol", "type": "cell-based", "settings": "stimulation with insulin 1 μg/mL; adipocytes differentiated with xanthoangelol 10 μM", "description": "Adipocytes which were induced to be differentiated by xanthoangelol were obtained, and thereafter it was confirmed on whether the glucose uptake into the adipocytes is enhanced by stimulation with insulin or 4-hydroxyderricin.\nSpecifically, as a sample, there was set a group with addition of a dimethyl sulfoxide solution of xanthoangelol having a final concentration of 10 μM. Thereafter, the medium and the sample were exchanged in the same manner as in the method described in Example 82 except that 3-isobutyl-1-methylxanthine having a final concentration of 0.5 mM was added concurrently with the addition of dexamethasone, to give mature adipocytes which were induced to be differentiated by xanthoangelol.\nNext, the amount of 2-deoxyglucose uptake into the mature adipocytes during the stimulation with insulin or 4-hydroxyderricin in the resulting mature adipocytes was determined in the same manner as in the method described in Example 83.\nSpecifically, there were set the group without the addition and the group with addition of insulin having a final concentration of 1 μg/mL or 4-hydroxyderricin having a final concentration of 20 μM. Thereafter, the amount of 2-deoxy-[1,2-^3H(N)]-glucose uptake into the adipocytes was determined in the same manner."}}, "data": [{"substance": "insulin: insulin (manufactured by TAKARA BIO INC.), positive control", "values": [{"measurement": "enhancing action on glucose uptake, increase without TNF-α defined as 100%", "setting": "[1]", "value": "around 40%"}, {"measurement": "2-deoxy-[1,2-3H(N)]-glucose uptake", "setting": "[2]", "value": "enhancement of 2-deoxy-[1,2-^3H(N)]-glucose uptake"}]}]}
